Data published in patent publication US12600731B2, “Isoxazolo[5,4-H]quinazoline compounds as protein kinase inhibitors” (CHENGDU CYNOGEN BIO-PHARMACEUTICAL TECHNOLOGY CO., LTD., priority 2019, dated 2026).
Counter-ions that a name gives are not always drawn.

How the values were obtained:
Type in all cases: biochemical
[1] = target: CDK4/cyclin D3 (Homo sapiens, UniProt P11802); assay: Kinase activity assay, Caliper Mobility Shift Assay, CDK4/cyclin D3; details: 10 nM kinase, ATP 250 μM, 150 minutes at room temperature
Chain of CDK4/cyclin D3 (P11802 whole entry, species assumed): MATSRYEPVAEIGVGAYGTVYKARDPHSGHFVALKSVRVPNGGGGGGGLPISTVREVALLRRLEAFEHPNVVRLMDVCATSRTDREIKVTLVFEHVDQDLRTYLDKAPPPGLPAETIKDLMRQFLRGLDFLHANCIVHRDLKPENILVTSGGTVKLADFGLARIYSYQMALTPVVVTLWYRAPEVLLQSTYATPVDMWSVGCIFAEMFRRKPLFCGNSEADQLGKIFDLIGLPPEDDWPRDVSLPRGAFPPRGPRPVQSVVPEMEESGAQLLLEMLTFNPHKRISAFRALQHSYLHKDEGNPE
Chain of CDK4/cyclin D3 (P30281 whole entry partner, species assumed): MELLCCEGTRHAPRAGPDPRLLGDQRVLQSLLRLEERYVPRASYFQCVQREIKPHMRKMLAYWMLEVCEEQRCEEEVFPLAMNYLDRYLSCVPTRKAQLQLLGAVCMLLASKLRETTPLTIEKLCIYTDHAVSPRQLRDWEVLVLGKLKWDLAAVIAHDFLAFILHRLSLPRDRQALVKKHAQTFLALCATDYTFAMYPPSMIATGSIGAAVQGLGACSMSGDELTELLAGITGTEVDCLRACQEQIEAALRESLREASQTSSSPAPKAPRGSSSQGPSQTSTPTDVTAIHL
Method: (§1) The inhibitory effect of compounds against the kinase CDK4/cyclin D3 was detected by Caliper Mobility Shift Assay method. The final concentration of the compounds to be tested was set at 10 concentrations starting from 1 μM by 3-fold serial dilution. 5 μL of compounds at 5-fold final concentration and 10 μL of CDK4/cyclin D3 kinase solution at a final concentration of 10 nM was added to a 384-well reaction plate, respectively. The plate was pre-incubated for 10 min at room temperature (with negative control wells containing 10 μL of kinase buffer and 5 μL of 5% DMSO; positive control wells containing 10 μL of kinase solution and 5 μL of 5% DMSO). The reaction was initiated by adding 10 μL of ATP at a final concentration of 250 μM and the corresponding substrate peptide mixture at room temperature for 150 minutes. 30 μL of stop detection solution containing EDTA was added to stop the kinase reaction. Caliper EZ Reader was used to read the conversion rate. Inhibition rate %=(average conversion rate of positive control %−conversion rate of sample %)/(average conversion rate of positive control %−average conversion rate of negative control %). wherein: negative control wells represent the conversion rate readings of wells without enzymatic activity; positive control wells represent conversion readings for wells with no compound inhibition. The log(inhibitor) vs. response—Variable slope of the analysis software GraphPad Prism 5 was used with log concentration value as the X-axis and the percent inhibition rate as the Y-axis to fit the dose-response curve, the IC50 value of each compound on the enzyme activity was thus obtained. Calculation formula: Y=Bottom+(Top−Bottom)/(1+10^((Log IC50−X)*HillSlope)).

[2] = target: CDK6/Cyclin D3 (Homo sapiens, UniProt Q00534); assay: Kinase activity assay, CDK6/Cyclin D3 (tested in a similar manner); details: tested in a similar manner to CDK4/cyclin D3
Chain of CDK6/Cyclin D3 (Q00534 whole entry, species assumed): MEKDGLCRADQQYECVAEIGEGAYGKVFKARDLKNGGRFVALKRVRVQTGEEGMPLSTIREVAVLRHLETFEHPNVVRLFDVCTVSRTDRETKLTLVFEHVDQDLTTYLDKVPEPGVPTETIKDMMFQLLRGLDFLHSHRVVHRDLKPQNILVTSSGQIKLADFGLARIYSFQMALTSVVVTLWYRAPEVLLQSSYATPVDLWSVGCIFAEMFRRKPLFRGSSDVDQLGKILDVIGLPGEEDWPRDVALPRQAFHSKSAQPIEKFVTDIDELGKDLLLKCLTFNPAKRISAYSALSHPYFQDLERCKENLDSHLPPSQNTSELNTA
Chain of CDK6/Cyclin D3 (P30281 whole entry partner, species assumed): as the sequence (P30281 whole entry partner, species assumed) above
Method: as §1
(§2) The IC50 values for CDK6/Cyclin D3 and CDK2/Cyclin A2 of compounds of the present disclosure were tested in a similar manner.

[3] = target: CDK2/Cyclin A2 (Homo sapiens, UniProt P24941); assay: Kinase activity assay, CDK2/Cyclin A2 (tested in a similar manner); details: tested in a similar manner to CDK4/cyclin D3
Method: as §1, §2

SMILES	IC50 [1] [µM]	IC50 [2] [µM]	IC50 [3] [µM]
CC(C)c1noc2ccc3cnc(Nc4ccc(N5CCOCC5)c(F)c4)nc3c12 [Compound I-36, N-(3-fluoro-4-morpholinophenyl)-9-isopropylisoxazolo[5,4-H] quinazolin-2-amine]	0.02	0.034	0.022
COc1ccc2cc(Nc3ncc4ccc5onc(C(C)C)c5c4n3)ccc2n1 [Compound I-37, 9-isopropyl-N-(2-methoxyquinolin-6-yl)isoxazolo[5,4-H]quinazolin-2-amine]	0.034	0.068	0.082
CC(C)c1noc2c1-c1nc(Nc3ccc(N4CCNCC4)cn3)ncc1CC2 [Compound I-24, 9-isopropyl-N-(5-(piperazin-1-yl)pyridin-2-yl)-5,6-dihydroisoxazolo[5,4-h]quinazolin-2-amine hydrochloride]	0.013	0.082	
CC(C)Cc1noc2ccc3cnc(Nc4ccc(N5CCOCC5)cn4)nc3c12 [Compound I-21, 9-isobutyl-N-(5-morpholinopyridin-2-yl)isoxazolo[5,4-H]quinazolin-2-amine]	0.047	0.245	
CC(C)Cc1noc2ccc3cnc(Nc4ccc(N5CCNCC5)cn4)nc3c12 [Compound I-18, 9-isobutyl-N-(5-(piperazin-1-yl)pyridin-2-yl)isoxazolo[5,4-H]quinazolin-2-amine]	0.006	0.032	
CC(C)Cc1noc2ccc3cnc(Nc4ccc(N5CCN(C)CC5)cn4)nc3c12 [Compound I-19, 9-isobutyl-N-(5-(4-methylpiperazin-1-yl)pyridin-2-yl)isoxazolo[5,4-H] quinazolin-2-amine]	0.007	0.037	
CC(C)c1noc2ccc3cnc(Nc4ccc(N5CCNCC5)nn4)nc3c12 [Compound I-15, 9-isopropyl-N-(6-(piperazin-1-yl)pyridazin-3-yl)isoxazolo[5,4-H]quinazolin-2-amine]	0.007	0.019	
CC(C)CN1CCN(c2ccc(Nc3ncc4ccc5onc(C(C)C)c5c4n3)nc2)CC1 [Compound I-11, N-(5-(4-isobutylpiperazin-1-yl)pyridin-2-yl)-9-isopropylisoxazolo[5,4-H] quinazolin-2-amine]	0.008	0.024	
Cc1cc(Nc2ncc3ccc4onc(C(C)C)c4c3n2)ncc1N1CCNCC1 [Compound I-2, 9-isopropyl-N-(4-methyl-5-(piperazin-1-yl)pyridin-2-yl)isoxazolo[5,4-H] quinazolin-2-amine]	0.006	0.023	
CCN1CCN(Cc2ccc(Nc3ncc4ccc5onc(C(C)C)c5c4n3)nc2)CC1 [Compound I-12, N-(5-((4-ethylpiperazin-1-yl)methyl)pyridin-2-yl)-9-isopropylisoxazolo[5,4-H] quinazolin-2-amine]	0.009	0.04	
CCN1CCN(c2ccc(Nc3ncc4ccc5onc(CC(C)C)c5c4n3)nc2)CC1 [Compound I-20, N-(5-(4-ethylpiperazin-1-yl)pyridin-2-yl)-9-isobutylisoxazolo[5,4-H] quinazolin-2-amine]	0.007	0.039	
Cc1nc(Nc2ncc3ccc4onc(C(C)C)c4c3n2)ccc1N1CCNCC1 [Compound I-3, 9-isopropyl-N-(6-methyl-5-(piperazin-1-yl)pyridin-2-yl)isoxazolo[5,4-H] quinazolin-2-amine]	0.008	0.036	
CCN1CCN(c2cnc(Nc3ncc4ccc5onc(C(C)C)c5c4n3)cc2C)CC1 [Compound I-6, N-(5-(4-ethylpiperazin-1-yl)-4-methylpyridin-2-yl)-9-isopropylisoxazolo[5,4-H] quinazolin-2-amine]	0.082	0.377	
CC(C)c1noc2ccc3cnc(Nc4ccc(N5CCNCC5=O)cn4)nc3c12 [Compound I-16, 1-(6-((9-isopropylisoxazolo[5,4-H]quinazolin-2-yl)amino)pyridin-3-yl)piperazin-2-one]	0.007	0.025	
CC(C)c1noc2ccc3cnc(Nc4ccc(N5CCN(C6CC6)CC5)cn4)nc3c12 [Compound I-10, N-(5-(4-eyelopropylpiperazin-1-yl)pyridin-2-yl)-9-isopropylisoxazolo[5,4-H] quinazolin-2-amine]	0.021	0.067	
CC(C)c1noc2c1-c1nc(Nc3ccc(N4CCOCC4)cn3)ncc1CC2 [Compound I-26, 9-isopropyl-N-(5-morpholinopyridin-2-yl)-5,6-dihydroisoxazolo[5,4-H] quinazolin-2-amine]	0.063	0.276	
c1cc(Nc2ncc3ccc4onc(C5CCCC5)c4c3n2)ncc1N1CCNCC1 [Compound I-22, 9-cyclopentyl-N-(5-(piperazin-1-yl)pyridin-2-yl)isoxazolo[5,4-H] quinazolin-2-amine]	0.007	0.021	
CCN1CCN(c2ccc(Nc3ncc4c(n3)-c3c(C(C)C)noc3CC4)nc2)CC1 [Compound I-25, N-(5-(4-ethylpiperazin-1-yl)pyridin-2-yl)-9-isopropyl-5,6-dihydroisoxazolo [5,4-H]quinazolin-2-amine]	0.011	0.064	
CN1CCN(c2ccc(Nc3ncc4ccc5onc(C6CCCC6)c5c4n3)nc2)CC1 [Compound I-23, 9-cyclopentyl-N-(5-(4-methylpiperazin-1-yl)pyridin-2-yl)isoxazolo[5,4-H]quinazolin-2-amine]	0.005	0.015	
CCN1CCN(c2ccc(Nc3ncc4ccc5onc(C(C)C)c5c4n3)nc2C)CC1 [Compound I-7, N-(5-(4-ethylpiperazin-1-yl)-6-methylpyridin-2-yl)-9-isopropylisoxazolo [5,4-H]quinazolin-2-amine]	0.036	0.176	

Further lines, results first:

IC50 [1] [µM]	IC50 [2] [µM]	IC50 [3] [µM]	SMILES
0.005	0.021		CC(C)c1noc2ccc3cnc(Nc4ccc(N5CCS(=O)(=O)CC5)cn4)nc3c12 [Compound I-17, 4-(6-((9-isopropylisoxazolo[5,4-H]quinazolin-2-yl)amino)pyridin-3-yl)thiomorpholine 1,1-dioxide]
0.002	0.007	0.012	CC(C)c1noc2ccc3cnc(Nc4ccc(N(CCN5CCOCC5)S(C)(=O)=O)cc4)nc3c12 [Compound I-41, N-(4-((9-isopropylisoxazolo[5,4-H]quinazolin-2-yl)amino)phenyl)-N-(2-morpholinoethyl) methanesulfonamide]
0.001	0.004		CCN1CCN(c2ccc(Nc3ncc4ccc5onc(C(C)C)c5c4n3)nc2)CC1 [Compound I-5, N-(5-(4-ethylpiperazin-1-yl)pyridin-2-yl)-9-isopropylisoxazolo [5,4-H]quinazolin-2-amine]
0.001	0.005	0.004	CC(C)c1noc2ccc3cnc(Nc4ccc(C(=O)N5CCN(C)CC5)cc4)nc3c12 [Compound I-43, (4-((9-isopropylisoxazolo[5,4-H]quinazolin-2-yl)amino)phenyl) (4-methylpiperazin-1-yl)methanone]
0.002	0.007		CC(C)c1noc2ccc3cnc(Nc4ccc(N5CCNCC5)cn4)nc3c12 [Compound I-1, 9-isopropyl-N-(5-(piperazin-1-yl)pyridin-2-yl)isoxazolo[5,4-H]quinazolin-2-amine hydrochloride]
0.004	0.01		CC(C)c1noc2ccc3cnc(Nc4ccc(C5CCNCC5)cn4)nc3c12 [Compound I-14, 9-isopropyl-N-(5-(piperidin-4-yl)pyridin-2-yl)isoxazolo[5,4-H] quinazolin-2-amine]
0.005	0.015		CC(C)c1noc2ccc3cnc(Nc4ccc(N5CCOCC5)cn4)nc3c12 [Compound I-8, 9-isopropyl-N-(5-morpholinopyridin-2-yl)isoxazolo[5,4-H] quinazolin-2-amine]
0.004	0.014		CC(C)c1noc2ccc3cnc(Nc4ccc(N5CCN(C(C)C)CC5)cn4)nc3c12 [Compound I-9, 9-isopropyl-N-(5-(4-isopropylpiperazin-1-yl)pyridin-2-yl)isoxazolo [5,4-H]quinazolin-2-amine]
0.004	0.012		CC(C)c1noc2ccc3cnc(Nc4ccc(N5CCC(N(C)C)CC5)cn4)nc3c12 [Compound I-13, N-(5-(4-(dimethylamino)piperidin-1-yl)pyridin-2-yl)-9-isopropylisoxazolo [5,4-H]quinazolin-2-amine]
0.001	0.004		CC(C)c1noc2ccc3cnc(Nc4ccc(N5CCN(C)CC5)cn4)nc3c12 [Compound I-4, 9-isopropyl-N-(5-(4-methylpiperazin-1-yl)pyridin-2-yl)isoxazolo [5,4-H]quinazolin-2-amine]
